Patent US20140356414A1, “Targeted Crosslinked Multilamellar Liposomes” (University of Southern California, priority 2013, published 2014)

Legend:
[1] = system: B16 cells; assay: In vitro cytotoxicity, XTT assay, B16 cells; format: cell-based; settings: 48 h
Description: B16 or HeLa cells were plated at a density of 5×10^3 cells per well in D10 media in 96-well plates and grown for 6 h. The cells were then exposed to a series of concentrations of Dox-loaded CMLs, ULs or DLLs for 48 h, and the cytotoxicity of Dox-liposomes was assessed using the Cell Proliferation Kit II (XTT assay) from Roche Applied Science, according to the manufacturer's instructions.

[2] = system: cardiac tissue; settings: 20 mg/kg Dox equivalent, single i.v.
From the text: FIGS. 9A-B. In vivo toxicity and tolerability. […] (A) Average mouse weight loss over time. […] Error bars represent the standard deviation of the mean; n=2 for each treatment group (*p<0.05, ***p<0.005).

[3] = Maximum tolerated dose study; settings: for body weight: 8 days
From the text: The mice were weighed and monitored daily for 8 days after injection.

COc1cccc2c1C(=O)c1c(O)c3c(c(O)c1C2=O)C[C@@](O)(C(=O)CO)C[C@@H]3O[C@H]1C[C@H](N)[C@H](O)[C@H](C)O1 [free Dox, doxorubicin]
half-maximal response (EC50) [1]: similar
histopathologic changes in cardiac tissue [2]: severe damage of cardiac tissue
body weight ([3]; 20 mg/kg Dox equivalent): significant loss of body weight
body weight ([3]; 40 mg/kg Dox equivalent): significant loss of body weight
general health / signs of toxicity ([3]; 40 mg/kg free Dox, CML-Dox groups): obvious signs of toxicity
maximum tolerated dose ([3]; single intravenous administration, C57BL/6 mice): < 20 mg/kg
